± gives the expanded uncertainty stated by the source.
Details: Liquid, Closed cell (Static) method

Row | SMILES | vapor or sublimation pressure (283.15 K) [kPa] | vapor or sublimation pressure (293.15 K) [kPa] | vapor or sublimation pressure (303.15 K) [kPa] | vapor or sublimation pressure (313.15 K) [kPa] | vapor or sublimation pressure (323.15 K) [kPa]
1 | C=C(F)C(F)(F)F [2,3,3,3-tetrafluoro-1-propene] | 436.5 ± 7.1 | 591 ± 7.2 | 780.5 ± 7.4 | 1015.6 ± 7.6 | 1300.7 ± 7.9
2 | CC(F)F [1,1-difluoroethane] | 374.8 ± 7 | 515.2 ± 7 | 692 ± 7.1 | 911.1 ± 7.1 | 1179.4 ± 7.2

— the NIST ThermoML archive (doi:10.1016/j.fluid.2014.04.015)
